Results published in US11207312B2, “Metallo-beta-lactamase inhibitors and methods of use thereof” (priority 2017, dated 2021).

Columns and labels:
[1] = target: NDM-1 (Klebsiella pneumoniae, UniProt C7C422); assay: biochemical; type: biochemical; conditions: CCF2-FA fluorescence assay, 2 hours at 25° C.
Method in brief: (§1)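 IC50s come from 4-parameter fits of inhibition versus inhibitor concentration, tested from 20 μM down to 0.00063 μM. Enzyme, CCF2-FA (1.25 μM) and inhibitor react 2 h at 25° C, pH 7, with 10 μM ZnSO4 and 0.005% Tween-20.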

[2] = target: VIM-1 (Pseudomonas aeruginosa (strain ATCC 15692 / DSM 22644 / CIP 104116 / JCM 14847 / LMG 12228 / 1C / PRS 101 / PAO1), UniProt A0A0F7KYQ8); assay: biochemical; conditions: CCF2-FA fluorescence assay, 2 hours at 25° C.; read-out: VIM1 IC50
Method in brief: as §1

[3] = target: IMP-1 (Serratia marcescens, UniProt P52699); assay: biochemical; conditions: CCF2-FA fluorescence assay, 2 hours at 25° C.; read-out: IMP1 IC50
Method in brief: as §1

[4] = tested on: P. aeruginosa MB9798 (efflux+, IMP-1 plasmid); conditions: for MB9798 MITC95 P. aeruginosa uM Efflux WT: efflux + (MB9798) strain, imipenem at 2 μg/mL, in the presence of a class A, C, D serine β-lactamase inhibitor closely related to relebactam; for Efflux ratio: fold difference between efflux+ (MB9798) and efflux− (MB9799) strains
Method in brief: (§2)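 PAO1-derived isogenic pair (oprD+, inducible AmpC), efflux+ MB5919 or efflux− MB5890 parent, carrying an electroporated IMP-1 plasmid from a clinical isolate. Microbroth MIC with fixed imipenem and/or ceftazidime (usually CLSI breakpoint) plus fixed class A/C inhibitor; MBL inhibitor serially titrated, concentration restoring susceptibility recorded.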

[5] = target: VIM-2 (Escherichia coli, UniProt Q5U7L7); assay: biochemical; conditions: CCF2-FA fluorescence assay; read-out: VIM2 IC50
[6] = tested on: Serratia marcescens expressing IMP-1 (CL5741); type: cell-based; conditions: with imipenem 1 μg/ml; 95% inhibition of bacterial growth
Method in brief: (§3)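 Colonies from sheep-blood agar plates are resuspended in saline, then diluted 1:100 in 1.1× CAMHB. Bacteria receive imipenem (1 μg/ml) and test compound, then incubate 22–24 h at 35 °C. Potentiation is reported as MITC95 from absorbance.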

[7] = tested on: Escherichia coli expressing NDM-1 (CLB30016); type: cell-based; conditions: with imipenem 1 μg/ml; 95% inhibition of bacterial growth
Method in brief: as §3

[8] = tested on: Klebsiella pneumoniae expressing VIM-1 (IHMA599644); type: cell-based; conditions: with imipenem 1 μg/ml; 95% inhibition of bacterial growth
Method in brief: as §3

[9] = tested on: P. aeruginosa MB9799 (efflux-, IMP-1 plasmid); type: cell-based, Pseudomonas aeruginosa; conditions: efflux − (MB9799) strain; imipenem at 2 μg/mL; in the presence of a class A, C, D serine β-lactamase inhibitor closely related to relebactam
Method in brief: as §2

IMP-1, sequence (P52699 whole entry, looked up, species assumed): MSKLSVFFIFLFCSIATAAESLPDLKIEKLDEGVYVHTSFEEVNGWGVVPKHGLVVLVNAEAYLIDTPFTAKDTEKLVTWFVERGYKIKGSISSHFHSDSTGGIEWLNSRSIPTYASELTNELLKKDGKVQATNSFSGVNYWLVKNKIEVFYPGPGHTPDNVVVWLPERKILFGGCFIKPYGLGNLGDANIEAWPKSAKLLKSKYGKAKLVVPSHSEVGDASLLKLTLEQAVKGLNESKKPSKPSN
NDM-1, sequence (C7C422 whole entry, looked up, species assumed): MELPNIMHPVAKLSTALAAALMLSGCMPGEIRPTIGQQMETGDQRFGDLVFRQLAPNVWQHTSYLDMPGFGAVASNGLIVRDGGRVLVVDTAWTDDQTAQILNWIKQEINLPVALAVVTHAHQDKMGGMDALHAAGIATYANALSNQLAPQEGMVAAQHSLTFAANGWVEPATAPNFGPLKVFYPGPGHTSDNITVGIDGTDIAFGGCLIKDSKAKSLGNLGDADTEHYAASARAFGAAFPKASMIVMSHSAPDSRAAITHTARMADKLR

COC1(CO)CCN(c2ccc(S(=O)(=O)N[C@H](C)CN)c(S(N)(=O)=O)c2-c2nn[nH]n2)CC1 [Example 19, (R)-N1-(1-aminopropan-2-yl)-4-(4-(hydroxymethyl)-4-methoxypiperidin-1-yl)-3-(2H-tetrazol-5-yl)benzene-1,2-disulfonamide]
IC50 [1]: 0.17 nM
IC50 [2]: 0.65 nM
IC50 [3]: 0.37 nM
MB9798 MITC95 P. aeruginosa uM Efflux WT [4]: 3.13 µM
Efflux ratio [4]: 1.00
IC50 [5]: 2.27 nM
CL5741 S. marcescens MITC95 IMP [6]: 3.13 µM
CLB30016 E. coli MITC95 NDM [7]: 3.13 µM
IHMA599644 K. pneumoniae MITC95 VIM [8]: 12.50 µM
MB9799 MITC95 P. aeruginosa uM Efflux Mutant [9]: 3.13 µM

NC[C@@H](O)CNS(=O)(=O)c1ccc(N2CCOC(CO)C2)c(-c2nn[nH]n2)c1S(N)(=O)=O (stereo partly drawn) [Example 20, N^1—((R)-3-amino-2-hydroxypropyl)-4-(2-(hydroxymethyl)morpholino)-3-(2H-tetrazol-5-yl)benzene-1,2-disulfonamide]
IC50 [1]: 0.77 nM
IC50 [2]: 0.26 nM
IC50 [3]: 1.53 nM
MB9798 MITC95 P. aeruginosa uM Efflux WT [4]: 3.13 µM
Efflux ratio [4]: 4.00
IC50 [5]: 0.49 nM
CL5741 S. marcescens MITC95 IMP [6]: 0.78 µM
CLB30016 E. coli MITC95 NDM [7]: 1.56 µM
IHMA599644 K. pneumoniae MITC95 VIM [8]: 3.13 µM
MB9799 MITC95 P. aeruginosa uM Efflux Mutant [9]: 0.78 µM

COC1(CO)CCN(c2ccc(S(=O)(=O)NC[C@H](O)CN)c(S(N)(=O)=O)c2-c2nn[nH]n2)CC1 [Example 21, (R)-N^1-(3-amino-2-hydroxypropyl)-4-(4-(hydroxymethyl)-4-methoxypiperidin-1-yl)-3-(2H-tetrazol-5-yl)benzene-1,2-disulfonamide]
IC50 [1]: 0.41 nM
IC50 [2]: 1.13 nM
IC50 [3]: 0.56 nM
MB9798 MITC95 P. aeruginosa uM Efflux WT [4]: 3.13 µM
Efflux ratio [4]: 1.00
IC50 [5]: 2.7 nM
CL5741 S. marcescens MITC95 IMP [6]: 6.25 µM
CLB30016 E. coli MITC95 NDM [7]: 12.50 µM
IHMA599644 K. pneumoniae MITC95 VIM [8]: 12.50 µM
MB9799 MITC95 P. aeruginosa uM Efflux Mutant [9]: 3.13 µM

NC[C@@H](O)CNS(=O)(=O)c1ccc(N2CCC(F)(CO)CC2)c(-c2nn[nH]n2)c1S(N)(=O)=O [Example 22, (R)-N^1-(3-amino-2-hydroxypropyl)-4-(4-fluoro-4-(hydroxymethyl)piperidin-1-yl)-3-(2H-tetrazol-5-yl)benzene-1,2-disulfonamide]
IC50 [1]: 0.45 nM
IC50 [2]: 0.35 nM
IC50 [3]: 0.7 nM
MB9798 MITC95 P. aeruginosa uM Efflux WT [4]: 1.56 µM
Efflux ratio [4]: 1.00
IC50 [5]: 0.79 nM
CL5741 S. marcescens MITC95 IMP [6]: 1.56 µM
CLB30016 E. coli MITC95 NDM [7]: 3.13 µM
IHMA599644 K. pneumoniae MITC95 VIM [8]: 6.25 µM
MB9799 MITC95 P. aeruginosa uM Efflux Mutant [9]: 1.56 µM

NC[C@@H](O)CNS(=O)(=O)c1ccc(N2CCCN(CCO)CC2)c(-c2nn[nH]n2)c1S(N)(=O)=O [Example 23, (R)-N^1-(3-amino-2-hydroxypropyl)-4-(4-(2-hydroxyethyl)-1,4-diazepan-1-yl)-3-(2H-tetrazol-5-yl)benzene-1,2-disulfonamide]
IC50 [1]: 19.7 nM
IC50 [2]: 1.48 nM
IC50 [3]: 40.5 nM
MB9798 MITC95 P. aeruginosa uM Efflux WT [4]: 3.13 µM
Efflux ratio [4]: 2.00
IC50 [5]: 10 nM
CL5741 S. marcescens MITC95 IMP [6]: 1.56 µM
CLB30016 E. coli MITC95 NDM [7]: 0.39 µM
IHMA599644 K. pneumoniae MITC95 VIM [8]: 0.78 µM
MB9799 MITC95 P. aeruginosa uM Efflux Mutant [9]: 1.56 µM

NCCC1CCN(c2ccc(S(=O)(=O)NC[C@H](O)CN)c(S(N)(=O)=O)c2-c2nn[nH]n2)CC1 [Example 24, (R)-N^1-(3-amino-2-hydroxypropyl)-4-(4-(2-aminoethyl)piperidin-1-yl)-3-(2H-tetrazol-5-yl)benzene-1,2-disulfonamide]
IC50 [1]: 5.09 nM
IC50 [2]: 0.45 nM
IC50 [3]: 5.79 nM
MB9798 MITC95 P. aeruginosa uM Efflux WT [4]: 1.56 µM
Efflux ratio [4]: 1.00
IC50 [5]: 5.6 nM
CL5741 S. marcescens MITC95 IMP [6]: 3.13 µM
CLB30016 E. coli MITC95 NDM [7]: 1.56 µM
IHMA599644 K. pneumoniae MITC95 VIM [8]: 6.25 µM
MB9799 MITC95 P. aeruginosa uM Efflux Mutant [9]: 1.56 µM

NC[C@@H](O)CNS(=O)(=O)c1ccc(N2CCC(CC(N)=O)CC2)c(-c2nn[nH]n2)c1S(N)(=O)=O [Example 25, (R)-2-(1-(4-(N-(3-amino-2-hydroxypropyl)sulfamoyl)-3-sulfamoyl-2-(2H-tetrazol-5-yl)phenyl)piperidin-4-yl)acetamide]
IC50 [1]: 0.54 nM
IC50 [2]: 0.17 nM
IC50 [3]: 0.39 nM
MB9798 MITC95 P. aeruginosa uM Efflux WT [4]: 3.13 µM
Efflux ratio [4]: 1.00
IC50 [5]: 0.74 nM
CL5741 S. marcescens MITC95 IMP [6]: 6.25 µM
CLB30016 E. coli MITC95 NDM [7]: 3.13 µM
IHMA599644 K. pneumoniae MITC95 VIM [8]: 6.25 µM
MB9799 MITC95 P. aeruginosa uM Efflux Mutant [9]: 3.13 µM

NC[C@@H](O)CNS(=O)(=O)c1ccc(N2CCC(CCn3cccn3)CC2)c(-c2nn[nH]n2)c1S(N)(=O)=O [Example 27, (R)-4-(4-(2-(1H-pyrazol-1-yl)ethyl)piperidin-1-yl)-N^1-(3-amino-2-hydroxypropyl)-3-(2H-tetrazol-5-yl)benzene-1,2-disulfonamide]
IC50 [1]: 0.07 nM
IC50 [2]: 0.06 nM
IC50 [3]: 0.05 nM
MB9798 MITC95 P. aeruginosa uM Efflux WT [4]: 25.00 µM
Efflux ratio [4]: 15.99
IC50 [5]: 0.18 nM
CL5741 S. marcescens MITC95 IMP [6]: 3.13 µM
CLB30016 E. coli MITC95 NDM [7]: 3.13 µM
IHMA599644 K. pneumoniae MITC95 VIM [8]: 6.25 µM
MB9799 MITC95 P. aeruginosa uM Efflux Mutant [9]: 1.56 µM

NS(=O)(=O)c1c(S(=O)(=O)C2CNC2)ccc(N2CCC(O)CC2)c1-c1nnn[nH]1 [Example 31, 6-(azetidin-3-ylsulfonyl)-3-(4-hydroxypiperidin-1-yl)-2-(1H-tetrazol-5-yl)benzenesulfonamide]
IC50 [1]: 1.67 nM
IC50 [2]: 0.89 nM
IC50 [3]: 1.89 nM
MB9798 MITC95 P. aeruginosa uM Efflux WT [4]: 6.25 µM
Efflux ratio [4]: 4.00
IC50 [5]: 3.36 nM
CL5741 S. marcescens MITC95 IMP [6]: 3.13 µM
CLB30016 E. coli MITC95 NDM [7]: 1.56 µM
IHMA599644 K. pneumoniae MITC95 VIM [8]: 3.13 µM
MB9799 MITC95 P. aeruginosa uM Efflux Mutant [9]: 1.56 µM

NCC1CCN(c2ccc(S(=O)(=O)NC[C@H](O)CN)c(S(N)(=O)=O)c2-c2nnn[nH]2)CC1 [Example 34]
IC50 [1]: 2.05 nM
IC50 [2]: 0.18 nM
IC50 [3]: 4.07 nM
MB9798 MITC95 P. aeruginosa uM Efflux WT [4]: 0.39 µM
Efflux ratio [4]: 2.00
IC50 [5]: 3.49 nM
CL5741 S. marcescens MITC95 IMP [6]: 0.39 µM
CLB30016 E. coli MITC95 NDM [7]: 0.39 µM
IHMA599644 K. pneumoniae MITC95 VIM [8]: 0.39 µM
MB9799 MITC95 P. aeruginosa uM Efflux Mutant [9]: 0.20 µM

NCCNS(=O)(=O)c1ccc(N2CCC(CN)CC2)c(-c2nnn[nH]2)c1S(N)(=O)=O [Example 35, N1-(2-aminoethyl)-4-(4-(aminomethyl)piperidin-1-yl)-3-(1H-tetrazol-5-yl)benzene-1,2-disulfonamide]
IC50 [1]: 3.6 nM
IC50 [2]: 0.32 nM
IC50 [3]: 5.1 nM
MB9798 MITC95 P. aeruginosa uM Efflux WT [4]: 0.78 µM
Efflux ratio [4]: 1.00
IC50 [5]: 6.69 nM
CL5741 S. marcescens MITC95 IMP [6]: 0.78 µM
CLB30016 E. coli MITC95 NDM [7]: 0.39 µM
IHMA599644 K. pneumoniae MITC95 VIM [8]: 3.13 µM
MB9799 MITC95 P. aeruginosa uM Efflux Mutant [9]: 0.78 µM

C[C@H](CN)NS(=O)(=O)c1ccc(N2CCC(CN)CC2)c(-c2nnn[nH]2)c1S(N)(=O)=O [Example 36, (R)-4-(4-(aminomethyl)piperidin-1-yl)-N1-(1-aminopropan-2-yl)-3-(1H-tetrazol-5-yl)benzene-1,2-disulfonamide]
IC50 [1]: 0.45 nM
IC50 [2]: 0.1 nM
IC50 [3]: 1.84 nM
MB9798 MITC95 P. aeruginosa uM Efflux WT [4]: 0.91 µM
Efflux ratio [4]: 1.40
IC50 [5]: 2.6 nM
CL5741 S. marcescens MITC95 IMP [6]: 1.30 µM
CLB30016 E. coli MITC95 NDM [7]: 0.65 µM
IHMA599644 K. pneumoniae MITC95 VIM [8]: 1.30 µM
MB9799 MITC95 P. aeruginosa uM Efflux Mutant [9]: 0.65 µM

NCC1CCN(c2ccc(S(=O)(=O)NC[C@@H](O)CN)c(S(N)(=O)=O)c2-c2nnn[nH]2)CC1 [Example 37, (S)-N1-(3-amino-2-hydroxypropyl)-4-(4-(aminomethyl)piperidin-1-yl)-3-(1H-tetrazol-5-yl)benzene-1,2-disulfonamide]
IC50 [1]: 1.29 nM
IC50 [2]: 0.11 nM
IC50 [3]: 3.04 nM
MB9798 MITC95 P. aeruginosa uM Efflux WT [4]: 0.78 µM
Efflux ratio [4]: 1.00
IC50 [5]: 2.07 nM
CL5741 S. marcescens MITC95 IMP [6]: 0.78 µM
CLB30016 E. coli MITC95 NDM [7]: 0.39 µM
IHMA599644 K. pneumoniae MITC95 VIM [8]: 0.78 µM
MB9799 MITC95 P. aeruginosa uM Efflux Mutant [9]: 0.78 µM
